# Active and inactive are the calls of the source.
# Columns and labels:
# [1] = biological target: T1, Alkaline phosphatase, tissue-nonspecific isozyme (Homo sapiens, UniProt P05186); assay: activation of tissue-nonspecific alkaline phosphatase – biochemical, TNAP isozyme, human IAP uHTS hits, selectivity assay for human IAP activator project, dose response (AID 488886); type: functional;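 also: potency of compounds raising TNAP activity as a selectivity check on IAP activators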
# T1 sequence (P05186 whole entry): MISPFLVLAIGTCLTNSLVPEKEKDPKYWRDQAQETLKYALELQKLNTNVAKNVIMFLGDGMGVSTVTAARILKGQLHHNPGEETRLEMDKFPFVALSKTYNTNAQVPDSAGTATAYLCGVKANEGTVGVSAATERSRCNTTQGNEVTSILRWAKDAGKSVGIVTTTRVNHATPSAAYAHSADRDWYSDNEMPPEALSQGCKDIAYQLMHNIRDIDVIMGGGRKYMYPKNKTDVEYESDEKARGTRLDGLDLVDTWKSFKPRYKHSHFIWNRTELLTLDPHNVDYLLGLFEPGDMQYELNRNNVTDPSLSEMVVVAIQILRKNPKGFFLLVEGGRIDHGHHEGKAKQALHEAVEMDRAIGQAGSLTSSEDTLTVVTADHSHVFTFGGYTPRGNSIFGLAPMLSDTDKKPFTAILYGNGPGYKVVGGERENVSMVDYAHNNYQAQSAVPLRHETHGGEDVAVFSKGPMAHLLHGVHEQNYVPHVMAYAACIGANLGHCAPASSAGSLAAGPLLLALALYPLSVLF
# [2] = biological target: T2, Intestinal-type alkaline phosphatase (Homo sapiens, UniProt P09923); assay: human intestinal alkaline phosphatase activators, dose response, biochemical, luminescence, uHTS hits (AID 463120); type: functional
# T2 sequence (P09923 whole entry): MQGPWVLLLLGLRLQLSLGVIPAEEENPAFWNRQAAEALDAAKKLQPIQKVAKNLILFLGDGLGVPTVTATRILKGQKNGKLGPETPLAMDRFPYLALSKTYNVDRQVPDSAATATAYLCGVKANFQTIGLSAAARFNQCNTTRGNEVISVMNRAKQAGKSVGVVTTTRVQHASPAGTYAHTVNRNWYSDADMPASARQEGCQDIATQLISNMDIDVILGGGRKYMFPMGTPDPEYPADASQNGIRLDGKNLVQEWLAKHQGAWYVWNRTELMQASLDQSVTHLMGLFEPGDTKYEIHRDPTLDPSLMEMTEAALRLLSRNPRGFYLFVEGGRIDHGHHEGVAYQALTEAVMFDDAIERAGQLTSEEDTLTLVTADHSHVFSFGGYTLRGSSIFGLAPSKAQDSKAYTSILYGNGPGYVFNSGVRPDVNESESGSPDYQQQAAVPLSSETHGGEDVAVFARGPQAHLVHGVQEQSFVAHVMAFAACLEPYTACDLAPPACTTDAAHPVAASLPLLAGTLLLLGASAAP
# [3] = biological target: T2, Intestinal-type alkaline phosphatase; assay: activation of human intestinal alkaline phosphatase – biochemical, luminescent, uHTS hits, set 2, dose response (AID 488817); type: functional;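 also: potency of activators that raise enzyme activity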
# [4] = biological target: T3, Intestinal-type alkaline phosphatase (Mus musculus, UniProt P24822); assay: PubChem AID 488874; type: functional
# T3 sequence (P24822 whole entry): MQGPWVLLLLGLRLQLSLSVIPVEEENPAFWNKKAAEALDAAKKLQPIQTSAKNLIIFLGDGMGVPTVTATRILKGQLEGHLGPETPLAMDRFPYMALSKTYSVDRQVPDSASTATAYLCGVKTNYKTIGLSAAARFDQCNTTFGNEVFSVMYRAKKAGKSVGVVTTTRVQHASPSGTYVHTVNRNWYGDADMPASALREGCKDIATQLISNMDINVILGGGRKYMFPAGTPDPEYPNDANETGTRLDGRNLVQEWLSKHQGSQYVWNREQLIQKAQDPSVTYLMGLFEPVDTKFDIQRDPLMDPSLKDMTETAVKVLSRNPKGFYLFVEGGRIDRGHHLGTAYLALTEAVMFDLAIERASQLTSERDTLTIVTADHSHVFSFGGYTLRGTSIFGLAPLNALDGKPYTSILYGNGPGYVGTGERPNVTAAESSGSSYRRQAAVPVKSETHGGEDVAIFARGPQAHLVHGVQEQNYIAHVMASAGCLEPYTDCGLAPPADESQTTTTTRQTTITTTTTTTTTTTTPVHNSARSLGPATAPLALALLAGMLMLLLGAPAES
# [5] = biological target: Lysine-specific demethylase 4C (Homo sapiens, UniProt Q9H3R0); assay: inhibition of JMJD2C H3K9me3 demethylation – biochemical, DELFIA europium, cherry-picked samples, dose response (AID 488835); type: functional
# Lysine-specific demethylase 4C, sequence (Q9H3R0 whole entry): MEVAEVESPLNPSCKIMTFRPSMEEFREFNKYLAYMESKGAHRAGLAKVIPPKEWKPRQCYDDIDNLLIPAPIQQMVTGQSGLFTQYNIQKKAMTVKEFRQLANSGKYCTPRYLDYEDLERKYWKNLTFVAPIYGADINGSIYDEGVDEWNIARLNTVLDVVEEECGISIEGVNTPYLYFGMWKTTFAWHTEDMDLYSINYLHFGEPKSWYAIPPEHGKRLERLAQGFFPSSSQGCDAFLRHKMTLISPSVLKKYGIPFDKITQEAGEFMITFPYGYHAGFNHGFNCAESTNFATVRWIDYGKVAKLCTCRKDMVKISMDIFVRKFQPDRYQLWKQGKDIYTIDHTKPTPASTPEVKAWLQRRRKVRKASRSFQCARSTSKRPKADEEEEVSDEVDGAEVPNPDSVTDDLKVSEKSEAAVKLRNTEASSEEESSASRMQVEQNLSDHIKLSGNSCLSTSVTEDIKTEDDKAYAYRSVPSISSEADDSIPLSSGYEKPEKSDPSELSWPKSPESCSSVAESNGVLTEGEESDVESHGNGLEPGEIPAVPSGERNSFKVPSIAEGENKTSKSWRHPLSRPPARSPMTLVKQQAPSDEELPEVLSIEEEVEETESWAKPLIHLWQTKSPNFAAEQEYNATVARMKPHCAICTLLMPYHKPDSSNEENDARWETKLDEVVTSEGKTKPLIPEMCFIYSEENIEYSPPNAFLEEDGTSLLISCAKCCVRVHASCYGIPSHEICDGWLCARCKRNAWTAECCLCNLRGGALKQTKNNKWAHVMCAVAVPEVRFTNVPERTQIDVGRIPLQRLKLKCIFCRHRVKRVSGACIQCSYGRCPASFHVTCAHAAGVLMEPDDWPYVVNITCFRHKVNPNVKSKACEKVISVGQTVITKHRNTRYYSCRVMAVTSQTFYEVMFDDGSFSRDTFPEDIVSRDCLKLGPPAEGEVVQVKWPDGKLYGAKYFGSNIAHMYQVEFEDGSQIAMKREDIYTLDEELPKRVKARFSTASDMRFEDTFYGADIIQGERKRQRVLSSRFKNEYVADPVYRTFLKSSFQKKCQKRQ
# [6] = biological target: T4, Sentrin-specific protease 8 (Homo sapiens, UniProt Q96LD8); type: functional
# T4 sequence (Q96LD8 whole entry): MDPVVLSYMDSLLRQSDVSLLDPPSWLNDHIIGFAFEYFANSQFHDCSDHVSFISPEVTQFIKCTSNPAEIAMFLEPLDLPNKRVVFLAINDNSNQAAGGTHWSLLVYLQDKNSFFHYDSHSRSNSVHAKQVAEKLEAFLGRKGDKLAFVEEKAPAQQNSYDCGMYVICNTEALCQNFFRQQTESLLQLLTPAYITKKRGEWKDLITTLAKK
# [7] = biological target: T4, Sentrin-specific protease 8; type: functional; remark: listed apart in the source
# [8] = biological target: Lysine-specific demethylase 4A (Homo sapiens, UniProt O75164); assay: inhibition of JMJD2A H3K9me3 demethylation – biochemical, DELFIA europium, cherry-picked samples, selectivity assay for GASC-1 inhibitor project, dose response (AID 488840)
# Lysine-specific demethylase 4A, sequence (O75164 whole entry): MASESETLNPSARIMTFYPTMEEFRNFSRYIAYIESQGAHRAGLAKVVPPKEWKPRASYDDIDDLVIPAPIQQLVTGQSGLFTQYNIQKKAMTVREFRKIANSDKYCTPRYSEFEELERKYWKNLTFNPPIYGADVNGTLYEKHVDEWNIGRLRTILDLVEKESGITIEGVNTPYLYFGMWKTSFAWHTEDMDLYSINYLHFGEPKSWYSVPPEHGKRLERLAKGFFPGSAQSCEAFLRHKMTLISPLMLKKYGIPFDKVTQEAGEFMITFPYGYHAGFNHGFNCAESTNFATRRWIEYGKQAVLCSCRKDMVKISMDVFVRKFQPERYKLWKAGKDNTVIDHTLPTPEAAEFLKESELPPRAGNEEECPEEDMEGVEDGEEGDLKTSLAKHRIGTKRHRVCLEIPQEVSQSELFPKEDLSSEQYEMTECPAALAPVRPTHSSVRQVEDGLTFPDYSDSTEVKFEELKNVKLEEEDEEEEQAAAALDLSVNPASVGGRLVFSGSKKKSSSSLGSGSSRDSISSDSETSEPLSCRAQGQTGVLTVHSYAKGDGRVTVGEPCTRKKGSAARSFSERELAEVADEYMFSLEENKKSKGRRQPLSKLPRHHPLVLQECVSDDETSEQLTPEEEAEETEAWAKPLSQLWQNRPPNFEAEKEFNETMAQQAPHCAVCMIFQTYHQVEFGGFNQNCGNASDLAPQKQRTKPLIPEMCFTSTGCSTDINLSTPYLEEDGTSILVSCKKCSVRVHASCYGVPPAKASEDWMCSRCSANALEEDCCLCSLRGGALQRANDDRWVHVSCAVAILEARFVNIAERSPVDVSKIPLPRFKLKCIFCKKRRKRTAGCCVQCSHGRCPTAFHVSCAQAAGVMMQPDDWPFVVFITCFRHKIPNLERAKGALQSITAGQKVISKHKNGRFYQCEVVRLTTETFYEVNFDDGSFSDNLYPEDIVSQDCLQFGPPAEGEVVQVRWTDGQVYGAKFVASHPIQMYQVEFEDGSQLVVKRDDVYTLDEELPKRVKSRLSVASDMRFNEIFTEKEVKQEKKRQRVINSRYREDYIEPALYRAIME
# [9] = biological target: T2, Intestinal-type alkaline phosphatase; assay: activation of human intestinal alkaline phosphatase – biochemical, dose response (AID 488873); type: functional
# [10] = biological target: T1, Alkaline phosphatase, tissue-nonspecific isozyme; assay: activation of tissue-nonspecific alkaline phosphatase – biochemical, TNAP isozyme, mouse IAP uHTS hits, selectivity assay for mouse IAP activator project, dose response (AID 488880); type: functional
# Large T antigen = Large T antigen (Simian virus 40, UniProt P03070); type: functional, Betapolyomavirus macacae;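 also: Confirmatory-stage PubChem screen for compounds that inhibit SV40 T antigen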
# Large T antigen, sequence (P03070 whole entry): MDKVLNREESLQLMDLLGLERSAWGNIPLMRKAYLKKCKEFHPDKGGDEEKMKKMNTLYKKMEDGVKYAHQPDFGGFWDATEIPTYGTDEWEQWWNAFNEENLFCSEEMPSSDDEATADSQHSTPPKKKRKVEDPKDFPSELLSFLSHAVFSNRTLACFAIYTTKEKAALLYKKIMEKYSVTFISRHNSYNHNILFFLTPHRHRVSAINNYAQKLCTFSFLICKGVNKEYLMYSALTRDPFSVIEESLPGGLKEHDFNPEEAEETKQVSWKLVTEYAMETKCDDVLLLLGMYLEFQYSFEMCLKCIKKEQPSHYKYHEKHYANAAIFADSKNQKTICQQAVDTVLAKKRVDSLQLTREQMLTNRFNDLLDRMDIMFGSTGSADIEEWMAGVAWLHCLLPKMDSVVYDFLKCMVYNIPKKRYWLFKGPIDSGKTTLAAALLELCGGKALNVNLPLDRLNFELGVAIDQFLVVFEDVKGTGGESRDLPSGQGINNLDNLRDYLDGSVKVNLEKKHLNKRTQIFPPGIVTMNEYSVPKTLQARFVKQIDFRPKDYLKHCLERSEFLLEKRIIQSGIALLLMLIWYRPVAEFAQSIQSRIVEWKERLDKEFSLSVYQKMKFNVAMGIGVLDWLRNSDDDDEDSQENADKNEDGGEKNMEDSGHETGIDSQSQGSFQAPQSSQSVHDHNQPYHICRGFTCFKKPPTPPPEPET
# [11] = biological target: T3, Intestinal-type alkaline phosphatase; assay: PubChem AID 488785; type: functional
# ORF 73 = biological target: T5, ORF 73 (Human herpesvirus 8, UniProt O40947); assay: KSHV LANA DNA-binding disruption – biochemical, fluorescence polarization, cherry-picked samples, dose response (AID 504725); parameters: species or system Human gammaherpesvirus 8;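 also: fluorescence polarization of a labeled DNA duplex reporting LANA DNA binding; potency is for inhibitors that block LANA binding to the DNA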
# T5 sequence (O40947 whole entry): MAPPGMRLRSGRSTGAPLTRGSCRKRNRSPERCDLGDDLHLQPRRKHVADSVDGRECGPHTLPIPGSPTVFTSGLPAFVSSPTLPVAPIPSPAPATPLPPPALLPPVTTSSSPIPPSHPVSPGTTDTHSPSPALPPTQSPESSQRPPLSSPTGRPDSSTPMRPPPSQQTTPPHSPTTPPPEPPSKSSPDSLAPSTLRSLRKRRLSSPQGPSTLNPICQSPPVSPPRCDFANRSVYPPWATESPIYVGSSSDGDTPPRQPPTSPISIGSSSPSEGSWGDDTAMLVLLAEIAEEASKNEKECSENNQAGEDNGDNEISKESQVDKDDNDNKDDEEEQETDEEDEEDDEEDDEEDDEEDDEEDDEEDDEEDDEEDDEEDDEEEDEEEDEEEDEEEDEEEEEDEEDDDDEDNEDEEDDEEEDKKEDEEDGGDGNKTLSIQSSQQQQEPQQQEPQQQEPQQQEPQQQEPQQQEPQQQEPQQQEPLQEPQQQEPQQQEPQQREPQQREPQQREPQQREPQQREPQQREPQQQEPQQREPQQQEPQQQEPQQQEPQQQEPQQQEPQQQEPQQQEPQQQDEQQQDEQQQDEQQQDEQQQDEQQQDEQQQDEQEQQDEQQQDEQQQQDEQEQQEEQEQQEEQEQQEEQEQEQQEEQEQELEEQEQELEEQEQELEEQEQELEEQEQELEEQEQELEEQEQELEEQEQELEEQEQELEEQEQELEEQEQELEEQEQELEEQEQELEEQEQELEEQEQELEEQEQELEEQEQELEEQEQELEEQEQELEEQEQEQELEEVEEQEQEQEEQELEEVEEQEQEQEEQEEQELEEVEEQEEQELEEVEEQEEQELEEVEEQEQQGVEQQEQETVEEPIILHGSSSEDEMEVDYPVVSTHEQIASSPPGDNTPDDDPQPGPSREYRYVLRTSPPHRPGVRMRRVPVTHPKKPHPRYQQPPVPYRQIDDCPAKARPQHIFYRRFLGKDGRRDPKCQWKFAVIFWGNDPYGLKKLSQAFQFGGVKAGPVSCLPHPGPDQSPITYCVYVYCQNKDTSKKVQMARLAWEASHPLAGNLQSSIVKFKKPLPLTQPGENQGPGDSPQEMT
# HeLa = assay: viability loss in HeLa cells – cell-based, 24 h, cherry-picked samples, cytotoxicity control, dose response (AID 504726); type: functional; conditions: Homo sapiens;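 also: potency for cytotoxicity as loss of luminescence signal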
# [12] = biological target: T1, Alkaline phosphatase, tissue-nonspecific isozyme; assay: TNAP enzyme inhibition by screening hits, dose response, selectivity assay for mouse IAP inhibitor project, biochemical, human TNAP, uHTS hits (AID 488906); type: functional
# [13] = biological target: T2, Intestinal-type alkaline phosphatase; assay: inhibition of human intestinal alkaline phosphatase – biochemical, dose response (AID 488876); type: functional
smiles,measurement,setting,value
CCC(C)(C)C1CCc2n[nH]c(C(=O)N/N=C(\C)c3ccco3)c2C1 (configuration not stated),EC50,[1],34.9 µM (active)
same,EC50,[2],8.06 µM (active)
same,EC50,[3],33 µM (active)
same,IC50,[4],> 100 µM (inactive)
CN1C(=O)C(Cc2ccsc2)C(=O)N(C)C1=O,AC50,[5],3.65 µM (active)
same,IC50,[6],33.6 µM (active)
same,IC50,[7],29.2 µM (active)
same,AC50,[8],8.7 µM (active)
N=C1/C(=C\c2ccc(O)c(O)c2)C(=O)N=C2SC(CC(=O)N3CCCCC3)=NN12,EC50,[9],21.3 µM (active)
same,EC50,[10],21.5 µM (active)
same,IC50,Large T antigen,1.92 µM (active)
same,IC50,[11],6.98 µM (active)
same,AC50,ORF 73,2.44 µM (active)
same,AC50,HeLa,267 µM (active)
O=C(O)CNS(=O)(=O)c1ccc2c3c(cccc13)C(=O)N2,IC50,[11],8.43 µM (active)
same,IC50,[12],85.4 µM (active)
same,IC50,[13],> 100 µM (inactive)

# From ChEMBL document CHEMBL1201862, “PubChem BioAssay data set” (2004)
